Results as given in ChEMBL document CHEMBL5385857, “Optimization and SAR research at the benzoxazole and tetrazole rings of JNJ4796 as new anti-influenza A virus agents, part 2” (Eur J Med Chem, 2023).
Activity calls are given as the source filed them. The rule behind the calls is not given here.

Tests used:
[1] = Selectivity index, ratio of CC50 for MDCK cells to IC50 for influenza A virus infected in MDCK cells; type: toxicity, cell-based; details: dog, read-out: Ratio CC50/IC50
[2] = Cytotoxicity against MDCK cells; type: toxicity, cell-based, Canis lupus familiaris; details: dog
[3] = tested on: Influenza A virus; experiment: Antiviral activity against influenza A virus H1N1 infected in MDCK cells; type: functional, organism-based
[4] = tested on: Infectious bronchitis virus; experiment: Antiviral activity against Infectious bronchitis virus; type: functional, organism-based
[5] = tested on: Influenza A virus; experiment: Antiviral activity against Influenza A virus H3N2 subtype; type: functional, organism-based
[6] = tested on: Influenza A virus; experiment: Antiviral activity against influenza A virus H1N1 A/Puerto Rico/8/1934 infected in Kunming mouse assessed as survival rate at 1.67 mg/kg, po administered with compound twice daily for 7 days followed by viral infection on day 2 and measured for 14 days relative to control; type: functional; details: H1N1 A/Puerto Rico/8/1934, 336 h, time 14 day
[7] = tested on: Influenza A virus; experiment: Antiviral activity against influenza A virus H1N1 A/Puerto Rico/8/1934 infected in Kunming mouse assessed as survival rate at 5 to 15 mg/kg, po administered with compound twice daily for 7 days followed by viral infection on day 2 and measured for 14 days relative to control; type: functional; details: dose 5-15 mg/kg, time 14 day
[8] = Toxicity in Kunming mouse infected with influenza A virus H1N1 A/Puerto Rico/8/1934 assessed as reduction in body weight at 5 to 15 mg/kg, po administered with compound twice daily for 7 days followed by viral infection on day 2 and measured for 14 days relative to oseltamivir; type: organism-based; details: in vivo, 336 h, dose 5-15 mg/kg, time 14 day
[9] = molecular target: hERG (KCNH2) (Homo sapiens, UniProt Q12809); experiment: Inhibition of hERG at 10 uM relative to control; type: toxicity
hERG (KCNH2), sequence (Q12809 whole entry): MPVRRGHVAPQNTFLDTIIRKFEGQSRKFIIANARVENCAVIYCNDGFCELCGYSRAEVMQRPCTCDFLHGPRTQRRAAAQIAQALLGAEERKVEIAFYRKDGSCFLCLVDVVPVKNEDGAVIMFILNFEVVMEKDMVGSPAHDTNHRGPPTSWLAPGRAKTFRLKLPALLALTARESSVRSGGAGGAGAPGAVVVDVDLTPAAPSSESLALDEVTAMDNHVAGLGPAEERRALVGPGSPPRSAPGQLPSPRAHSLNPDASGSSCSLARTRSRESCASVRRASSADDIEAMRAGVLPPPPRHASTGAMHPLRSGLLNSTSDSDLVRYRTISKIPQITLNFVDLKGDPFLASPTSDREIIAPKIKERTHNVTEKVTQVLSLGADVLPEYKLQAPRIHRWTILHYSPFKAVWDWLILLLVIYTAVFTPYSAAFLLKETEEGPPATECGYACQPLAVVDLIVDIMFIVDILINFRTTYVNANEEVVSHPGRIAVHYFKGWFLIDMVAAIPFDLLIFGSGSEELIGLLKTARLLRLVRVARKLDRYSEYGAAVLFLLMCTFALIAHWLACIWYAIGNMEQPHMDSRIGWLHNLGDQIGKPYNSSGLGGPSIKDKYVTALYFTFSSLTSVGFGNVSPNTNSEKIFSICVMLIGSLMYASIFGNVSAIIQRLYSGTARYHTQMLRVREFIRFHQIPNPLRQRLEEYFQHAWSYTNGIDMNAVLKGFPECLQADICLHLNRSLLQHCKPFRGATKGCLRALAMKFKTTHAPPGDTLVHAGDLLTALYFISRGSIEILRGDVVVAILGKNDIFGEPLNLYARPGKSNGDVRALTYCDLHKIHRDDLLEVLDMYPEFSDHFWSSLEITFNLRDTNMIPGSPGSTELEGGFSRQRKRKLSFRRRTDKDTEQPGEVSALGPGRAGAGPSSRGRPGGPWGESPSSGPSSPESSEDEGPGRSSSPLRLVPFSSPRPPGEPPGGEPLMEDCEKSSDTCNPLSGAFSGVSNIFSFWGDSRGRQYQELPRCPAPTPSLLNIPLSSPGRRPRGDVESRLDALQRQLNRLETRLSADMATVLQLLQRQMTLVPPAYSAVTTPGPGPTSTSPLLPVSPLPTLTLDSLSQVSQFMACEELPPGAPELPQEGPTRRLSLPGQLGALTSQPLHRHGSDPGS

[10] = Tmax in Balb/c mouse at 25 mg/kg, po administered as single dose; type: ADME, organism-based; details: in vivo
[11] = AUC (0 to infinity) in Balb/c mouse at 25 mg/kg, po administered as single dose; type: ADME, organism-based; parameters: dose 25 mg/kg, route po; details: in vivo
[12] = Elimination half life in Balb/c mouse at 25 mg/kg, po administered as single dose; type: ADME, organism-based; details: in vivo, read-out: beta t1/2 (converted)
[13] = Cmax in Balb/c mouse at 25 mg/kg, po administered as single dose; type: ADME, organism-based; parameters: dose 25 mg/kg, route po; details: in vivo

SMILES: CC(=O)Nc1ccc2oc(-c3ccnc(C(=O)N4CCN([C@@H](c5ccc(F)cc5)c5nnn(CCC(C)C)n5)CC4)c3)nc2c1
- selectivity ratio [1]: > 39
- CC50 [2]: > 100 µM
- IC50 [3]: 2.51 µM

SMILES: COCCn1nnc(C(c2ccc(F)cc2)N2CCN(C(=O)c3cc(-c4nc5cc(NC(C)=O)ccc5o4)ccn3)CC2)n1 (stereo not given)
- CC50 [2]: > 50 µM
- IC50 [3]: 2.47 µM

SMILES: Cn1nnc(C(c2ccc(F)cc2)N2CCN(C(=O)c3cc(-c4nc5cc(NC(=O)C6CCCC6)ccc5o4)ccn3)CC2)n1 (stereo not given)
- CC50 [2]: 5.14 µM
- IC50 [3]: 0.63 µM

SMILES: CC(=O)Nc1ccc2oc(-c3ccnc(C(=O)N4CCN([C@H](c5ccccc5)c5nnn(C(C)C)n5)CC4)c3)nc2c1
- selectivity ratio [1]: > 1000
- CC50 [2]: > 100 µM
- IC50 [3]: 0.1 µM

SMILES: Cn1nnc(C(c2ccc(F)cc2)N2CCN(C(=O)c3cc(-c4nc5cc(NC(=O)C6CCCO6)ccc5o4)ccn3)CC2)n1 (stereo not given)
- CC50 [2]: > 50 µM
- IC50 [3]: 0.82 µM

SMILES: CCCCn1nnc([C@@H](c2ccc(F)cc2)N2CCN(C(=O)c3cc(-c4nc5cc(NC(C)=O)ccc5o4)ccn3)CC2)n1
- selectivity ratio [1]: > 714
- CC50 [2]: > 100 µM
- IC50 [3]: 0.14 µM

SMILES: CC(=O)Nc1ccc2oc(-c3ccnc(C(=O)N4CCN([C@H](c5ccc(F)cc5)c5nnn(CCC(C)C)n5)CC4)c3)nc2c1
- selectivity ratio [1]: > 384
- CC50 [2]: > 100 µM
- IC50 [3]: 0.26 µM

SMILES: CC(=O)Nc1ccc2oc(-c3ccnc(C(=O)N4CCN(C(c5ccccc5)c5nnnn5C(C)C)CC4)c3)nc2c1 (stereo not given)
- CC50 [2]: > 50 µM
- IC50 [3]: > 15 µM

SMILES: CCC(CC)n1nnc([C@@H](c2ccc(F)cc2)N2CCN(C(=O)c3cc(-c4nc5cc(NC(C)=O)ccc5o4)ccn3)CC2)n1
- selectivity ratio [1]: > 1110
- CC50 [2]: > 100 µM
- IC50 [3]: 0.09 µM

SMILES: Cn1nnc(C(c2ccc(F)cc2)N2CCN(C(=O)c3cc(-c4nc5cc(NC(=O)C6CCCCC6)ccc5o4)ccn3)CC2)n1 (stereo not given)
- CC50 [2]: 1.43 µM
- IC50 [3]: 0.82 µM

SMILES: CC(=O)Nc1ccc2oc(-c3ccnc(C(=O)N4CCN(C(c5ccc(F)cc5)c5nnn(C)n5)CC4)c3)nc2c1 (stereo not given)
- Activity [4]: inactive
- Activity [5]: inactive

SMILES: CC(=O)Nc1ccc2oc(-c3ccnc(C(=O)N4CCN(C(c5ccc(F)cc5)c5nnn(C6CCOCC6)n5)CC4)c3)nc2c1 (stereo not given)
- CC50 [2]: > 50 µM
- IC50 [3]: 1.08 µM

SMILES: CC(=O)Nc1ccc2sc(-c3ccnc(C(=O)N4CCN(C(c5ccccc5)c5nnn(C(C)C)n5)CC4)c3)nc2c1 (stereo not given)
- CC50 [2]: > 50 µM
- IC50 [3]: 1.43 µM

SMILES: CC(=O)Nc1ccc2oc(-c3ccnc(C(=O)N4CCN([C@H](c5ccccc5)c5nnn(C)n5)CC4)c3)nc2c1
- Activity [4]: inactive
- Activity [5]: inactive
- survival at 1.67 mg/kg [6]: 80%
- Survival [7]: 100%
- Activity [8]: Non-Toxic

SMILES: C=Cn1nnc([C@@H](c2ccc(F)cc2)N2CCN(C(=O)c3cc(-c4nc5cc(NC(C)=O)ccc5o4)ccn3)CC2)n1
- selectivity ratio [1]: > 3330
- inhibition at 10 µM [9]: 36.4%
- Tmax [10]: 15 min
- CC50 [2]: > 100 µM
- IC50 [3]: 0.03 µM
- AUC(0-inf) [11]: 2100 ng·h/mL
- half-life [12]: 94.2 min
- Cmax [13]: 2130 ng/mL

SMILES: CC(=O)Nc1ccc2oc(-c3ccnc(C(=O)N4CCN(C(c5ccc(F)cc5)c5nnn(C6CCCC6)n5)CC4)c3)nc2c1 (stereo not given)
- CC50 [2]: > 50 µM
- IC50 [3]: 0.26 µM

SMILES: CC(=O)Nc1ccc2oc(-c3ccnc(C(=O)N4CCN([C@@H](c5ccccc5)c5nnn(C(C)C)n5)CC4)c3)nc2c1
- selectivity ratio [1]: > 120
- CC50 [2]: > 100 µM
- IC50 [3]: 0.83 µM

SMILES: C=Cn1nnc([C@H](c2ccc(F)cc2)N2CCN(C(=O)c3cc(-c4nc5cc(NC(C)=O)ccc5o4)ccn3)CC2)n1
- selectivity ratio [1]: > 34
- CC50 [2]: > 100 µM
- IC50 [3]: 2.93 µM

SMILES: CC(=O)Nc1ccc2oc(-c3ccnc(C(=O)N4CCN(C(c5ccc(F)cc5)c5nnn(CCC6CCCCC6)n5)CC4)c3)nc2c1 (stereo not given)
- CC50 [2]: > 50 µM
- IC50 [3]: 0.82 µM

SMILES: CCn1nnc(C(c2ccc(F)cc2)N2CCN(C(=O)c3cc(-c4nc5cc(NC(C)=O)ccc5o4)ccn3)CC2)n1 (stereo not given)
- CC50 [2]: > 50 µM
- IC50 [3]: 0.63 µM

SMILES: CC(=O)Nc1ccc2oc(-c3ccnc(C(=O)N4CCN(C(c5ccc(F)cc5)c5nnn(C(C)C)n5)CC4)c3)nc2c1 (stereo not given)
- CC50 [2]: > 50 µM
- IC50 [3]: 0.22 µM

SMILES: Cn1nnc(C(c2ccc(F)cc2)N2CCN(C(=O)c3cc(-c4nc5cc(NC(=O)c6ccccc6)ccc5o4)ccn3)CC2)n1 (stereo not given)
- CC50 [2]: 10.7 µM
- IC50 [3]: 0.63 µM
